Data reported in US20210038732A1, “ANTICANCER MICRORNA AND LIPID FORMULATIONS THEREOF” (INTERNA TECHNOLOGIES B.V., priority 2018, published 2021).

Experiments:
4T1 = test: Cell motility, Boyden chamber assay; type: cell-based, mouse; conditions: 10 nM
Method: (§1) To check the migratory ability of cells, a Boyden Chamber assay was performed, which is based on a chamber of two medium-filled compartments separated by a […] pore size membrane (BD falcon). In this assay, depending on cell type 60,000-120,000 cells were seeded in the upper compartment of the membrane in serum free medium and were allowed to migrate through the pores of the membrane into the lower compartment, in which serum is present in the media. The serum acts as a chemoattractant. After an appropriate incubation time, the membrane between two compartments was fixed, stained and 6 different images from each membrane were taken. The number of migratory cells were counted using Image J analysis.
Different biological effects of miRNA-193a-3p have been tested in various cancer cell lines (see Table 13). For this, various cells were treated with miRNA-193a at different concentrations (1, 3, 10 nM). For all experiments controls (untreated, mock and scrambled) were measured. All assays were performed at 24h, 48h and 72h time points. […] All the results have been quantified and normalized to the mock control.
miRNA-193a treatment in various cancer cell lines decreased cell viability over time as measured by either an MTS assay or by cell count. It enhanced apoptosis induction over time as measured by a caspase 3/7 apoptosis assay. […]

A549 = test: Cell motility, Boyden chamber assay; type: cell-based, human; conditions: 10 nM; A549 (first of two symbols in the cell)
Method: as §1
(§2) Different biological effects of miRNA-193a-3p have been tested in various cancer cell lines (see Table 13). For this, various cells were treated with miRNA-193a at different concentrations (1, 3, 10 nM). For all experiments controls (untreated, mock and scrambled) were measured. All assays were performed at 24h, 48h and 72h time points. Data shown in Table 13 are the results for miRNA-193a at 10 nM concentration at indicated time points. All the results have been quantified and normalized to the mock control.
(§3) miRNA-193a treatment in various cancer cell lines decreased cell viability over time as measured by either an MTS assay or by cell count. It enhanced apoptosis induction over time as measured by a caspase 3/7 apoptosis assay. […] It is of note that due to intrinsic characteristics and gene mutation status of each cell line, performing one method to detect apoptosis is not always ideal for all cell lines.

A2058 = test: Cell motility, Boyden chamber assay; type: cell-based, human; conditions: 10 nM
Method: as §1, §2, §3

HeP3B, SNU449 = test: Cell motility, Boyden chamber assay; type: cell-based, human; conditions: 10 nM
Method: as §1, §2, §3

[1] = system: subq human A2058 melanoma tumors; test: Tumor growth inhibition in mice bearing subq A2058 tumors (Example 4.2); type: in vivo
Method: To determine TGI effects, the T/C (tumor/control) ratio was determined by calculating the relative percentage increase in TV (tumor volume) for the individual mice of each group (TV of the day of randomization as reference point), and then dividing the group median relative increase in TV for the treated groups by that for the PBS group. Outliers (with respect to individual TVs) within each treatment group were determined by using the formulas Q1−1.5×IQR (lower limit) and Q3+1.5×IQR (upper limit).
Statistical analysis was performed using Graphpad Prism 7. A two-tailed, non-parametric Mann-Whitney test was used to calculate differences in relative tumor volumes (TV on day ‘X’ divided by TV on the day of randomization). In all statistical tests, the effect of the test items was compared to the PBS group. A p-value <0.05 was considered statistically significant.
Four to six weeks old female athymic nude mice (Crl:NU(NCr)-Foxn1nu; Charles River) were unilaterally and subcutaneously injected in the flank with 1×10^7 A2058 cells in 50% matrigel (0.2 mL/mouse). At the time of randomization, the TVs (tumor volumes) ranged between 139.4 and 245.5 mm3 (median 161.3, IQR=149.9-175.1). Body weights and TVs (caliper measurements) were determined three times/week. […]

[2] = system: H22 (mouse liver tumor cells); test: Re-challenge of surviving treated mice with H22 cells (Example 4.4); type: in vivo
Method: To investigate the long-term immunity in miRNA-193a treated mice against 4T1 cells, on day 75 after inoculation, mice treated with miRNA-193a and 8 naïve (non-tumor bearing) mice were re-challenged by subcutaneous injection of 3×10^5 4T1 mouse tumor cells in PBS (0.1 mL/mouse) into the right front flank. TV and BW were monitored for 3 weeks. Then, to investigate the immunization status of miRNA-193a treated mice against other cell types, on day 101, mice treated with miRNA-193a and 8 naïve (non-tumor bearing) mice were re-challenged by subcutaneous injection of H22 (mouse liver tumor cells) cells in PBS (0.1 mL/mouse) into the right lower flank.

Question: Which “Motility (18 to 24 h)” value (4T1) does the source give for “miRNA-193a: duplex of the miRNA-193a-3p of SEQ ID NO: 218 (mimic, sense) with antisense strand SEQ ID NO: 219; naked in vitro, formulated in vivo (sense UGGGACUUUGUAGGCCAGUUTT; antisense AACUGGCCUACAAAGUCCCAGU; chemistry not given here; listed as Homo sapiens)” here?
Answer: Its value is “↓”.

Question: And the “Motility (18 to 24 h)” value (A549)?
Answer: Its value is “↓”.

Question: What about the “Motility (18 to 24 h)” value (A2058) of the same substance?
Answer: The value was “↓”.

Question: What about the “Motility (18 to 24 h)” value (HeP3B, SNU449) of the same substance?
Answer: The value was “↓”.

Question: And the “T/C (relative tumor volume)” value ([1]; 3 mg/kg iv QDx5 then BIW, Table 1 entry 1 nanoparticles, 12 days after start of treatment)?
Answer: The value was 0.44.

Question: And the TGI effects ([1]; formulated in nanoparticles according to the invention, 3 mg/kg iv)?
Answer: The TGI effects was “significant TGI effects”.

Question: What about the “Tumor take after re-challenge with H22 cells” value ([2]; re-challenge day 101, 38 days post end of treatment) of the same substance?
Answer: The value was 100%.

Question: And the “H22 tumor growth after re-challenge” value ([2]; re-challenge day 101, vs naïve mice)?
Answer: Its value is “rapid inhibition of H22 tumor growth”.
